Laboratory results as given in patent US10588317B2, “Isoxazoline-substituted benzamides and analogues as insecticides” (priority 2015, dated 2020).

Key:
Type in all cases: in vivo
Diabrotica balteata = Diabrotica balteata (corn root worm), sprayed maize sprouts; conditions: 96 h, application rate 200 ppm, L2 larvae, 4 days after infestation, read-out: effect in at least one of the two categories (mortality or growth inhibition)
Summary of the method: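 Read-out at 4 days post-infestation: mortality and growth inhibition relative to untreated samples. Test solutions (200 ppm, from DMSO stocks) were sprayed onto agar-held maize sprouts, which after drying received 6–10 L2 larvae per well.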

Spodoptera littoralis [1] = test: Spodoptera littoralis (Egyptian cotton leaf worm), uptake by lettuce roots from agar; conditions: 144 h, read-out: effect in at least one of the three categories (mortality, anti-feeding, or growth inhibition)
Text: Test compounds were applied by pipette from 10'000 ppm DMSO stock solutions into 24-well plates and mixed with agar. Lettuce seeds were placed onto the agar and the multi well plate was closed by another plate which contained also agar. After 7 days the compound was absorbed by the roots and the lettuce grew into the lid plate. The lettuce leaves were then cut off into the lid plate. Spodoptera eggs were pipetted through a plastic stencil onto a humid gel blotting paper and the lid plate was closed with it. The samples were assessed for mortality, anti-feedant effect and growth inhibition in comparison to untreated samples 6 days after infestation.
The following compounds gave an effect of at least 80% in at least one of the three categories (mortality, anti-feeding, or growth inhibition) at a test rate of 12.5 ppm: […]

Plutella xylostella = Plutella xylostella (diamond back moth), artificial diet; conditions: 120 h, application rate 200 ppm, L2 larvae, 5 days after infestation, read-out: effect in at least one of the two categories (mortality or growth inhibition)
Summary of the method: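 L2 larvae (10-15 per well) fed on compound-treated, dried artificial diet; test solutions diluted in water from 10'000 ppm DMSO stocks. Readout 5 days post-infestation as mortality or growth inhibition versus untreated diet, with at least 80% effect at 200 ppm as threshold.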

Spodoptera littoralis [2] = test: Spodoptera littoralis (Egyptian cotton leaf worm), sprayed cotton leaf discs; conditions: foliar, 72 h, application rate 200 ppm, L1 larvae, 3 days after infestation, read-out: control (mortality, anti-feeding effect, growth inhibition)
Summary of the method: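 Five first-instar larvae placed on dried cotton leaf discs (on agar) previously sprayed with aqueous dilutions of 10'000 ppm DMSO stocks. Scored at 3 days against untreated discs for mortality, feeding inhibition and growth inhibition; any category above untreated counts as control.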

Tetranychus urticae = Tetranychus urticae (two-spotted spider mite): feeding/contact activity; conditions: 192 h, application rate 200 ppm, mixed population (mobile stages), 8 days after infestation, read-out: mortality
Experimental: Bean leaf discs on agar in 24-well microtiter plates were sprayed with aqueous test solutions prepared from 10'000 ppm DMSO stock solutions. After drying the leaf discs were infested with a mite population of mixed ages. The samples were assessed for mortality on mixed population (mobile stages) 8 days after infestation.

Thrips tabaci = Thrips tabaci (onion thrips): feeding/contact activity; conditions: 144 h, application rate 200 ppm, Thrips population of mixed ages, 6 days after infestation, read-out: mortality
Experimental: Sunflower leaf discs were placed on agar in 24-well microtiter plates and sprayed with aqueous test solutions prepared from 10'000 ppm DMSO stock solutions. After drying the leaf discs were infested with a Thrips population of mixed ages. The samples were assessed for mortality 6 days after infestation.

Myzus persicae = Myzus persicae (green peach aphid): feeding/contact activity; conditions: 144 h, application rate 200 ppm, aphid population of mixed ages, 6 days after infestation, read-out: mortality
Experimental: Sunflower leaf discs were placed onto agar in a 24-well microtiter plate and sprayed with aqueous test solutions prepared from 10'000 ppm DMSO stock solutions. After drying, the leaf discs were infested with an aphid population of mixed ages. The samples were assessed for mortality 6 days after infestation.

Euschistus heros = Euschistus heros (neotropical brown stink bug), sprayed soybean leaves; conditions: 120 h, application rate 200 ppm, N2 nymphs, 5 days after infestation, read-out: effect in at least one of the two categories (mortality or growth inhibition)
Summary of the method: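 Scored 5 days post-infestation versus untreated controls, for both mortality and growth inhibition: N2 nymphs placed on agar-mounted soybean leaves previously sprayed at 200 ppm with aqueous test solutions from DMSO stocks and left to dry.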

Cc1cc(C2=NO[C@@](c3cc(Cl)c(F)c(Cl)c3)(C(F)(F)F)C2)ccc1C(=O)NC1CON(S(C)(=O)=O)C1 (stereo partly drawn) [Compound A1, 4-[(5S)-5-(3,5-dichloro-4-fluoro-phenyl)-5-(trifluoromethyl)-4H-isoxazol-3-yl]-2-methyl-N-(2-methylsulfonylisoxazolidin-4-yl)benzamide]
≥ 80%: percent effect (mortality or growth inhibition) at 200 ppm (Diabrotica balteata) | percent control (mortality, anti-feedant effect or growth inhibition) at 12.5 ppm (Spodoptera littoralis [1]) | percent effect (mortality or growth inhibition) at 200 ppm (Plutella xylostella) | mortality at 200 ppm (Spodoptera littoralis [2]) | mortality at 200 ppm (Tetranychus urticae) | mortality at 200 ppm (Thrips tabaci) | mortality at 200 ppm (Myzus persicae)

Cc1cc(C2=NO[C@@](c3cc(Cl)c(F)c(Cl)c3)(C(F)(F)F)C2)ccc1C(=O)NC1CON(S(=O)(=O)CC(F)(F)F)C1 (some centres unmarked) [Compound A8]
≥ 80%: percent effect (mortality or growth inhibition) at 200 ppm (Euschistus heros) | percent effect (mortality or growth inhibition) at 200 ppm (Diabrotica balteata) | percent control (mortality, anti-feedant effect or growth inhibition) at 12.5 ppm (Spodoptera littoralis [1]) | percent effect (mortality or growth inhibition) at 200 ppm (Plutella xylostella) | mortality at 200 ppm (Spodoptera littoralis [2]) | mortality at 200 ppm (Tetranychus urticae) | mortality at 200 ppm (Thrips tabaci)

CS(=O)(=O)N1CC(NC(=O)c2ccc(C3=NOC(c4cc(Cl)cc(Cl)c4)(C(F)(F)F)C3)cc2Br)CO1 (centres unmarked) [Compound A48]
≥ 80%: percent effect (mortality or growth inhibition) at 200 ppm (Euschistus heros) | percent effect (mortality or growth inhibition) at 200 ppm (Diabrotica balteata) | percent control (mortality, anti-feedant effect or growth inhibition) at 12.5 ppm (Spodoptera littoralis [1]) | percent effect (mortality or growth inhibition) at 200 ppm (Plutella xylostella) | mortality at 200 ppm (Spodoptera littoralis [2]) | mortality at 200 ppm (Tetranychus urticae) | mortality at 200 ppm (Thrips tabaci)

CS(=O)(=O)N1CC(NC(=O)c2ccc(C3=NOC(c4cc(Cl)cc(Cl)c4)(C(F)(F)F)C3)cc2C2CC2)CO1 (centres unmarked) [Compound A52]
≥ 80%: percent effect (mortality or growth inhibition) at 200 ppm (Euschistus heros) | percent effect (mortality or growth inhibition) at 200 ppm (Diabrotica balteata) | percent control (mortality, anti-feedant effect or growth inhibition) at 12.5 ppm (Spodoptera littoralis [1]) | percent effect (mortality or growth inhibition) at 200 ppm (Plutella xylostella) | mortality at 200 ppm (Spodoptera littoralis [2]) | mortality at 200 ppm (Tetranychus urticae) | mortality at 200 ppm (Thrips tabaci)

Cc1cc(C2=NOC(c3cc(C(F)(F)F)c(Cl)c(C(F)(F)F)c3)(C(F)(F)F)C2)ccc1C(=O)NC1CON(S(C)(=O)=O)C1 (centres unmarked) [Compound A57]
≥ 80%: percent effect (mortality or growth inhibition) at 200 ppm (Euschistus heros) | percent effect (mortality or growth inhibition) at 200 ppm (Diabrotica balteata) | percent control (mortality, anti-feedant effect or growth inhibition) at 12.5 ppm (Spodoptera littoralis [1]) | percent effect (mortality or growth inhibition) at 200 ppm (Plutella xylostella) | mortality at 200 ppm (Spodoptera littoralis [2]) | mortality at 200 ppm (Tetranychus urticae) | mortality at 200 ppm (Thrips tabaci)

CCS(=O)(=O)N1C[C@@H](NC(=O)c2ccc(C3=NO[C@@](c4cccc(C(F)(F)F)c4)(C(F)(F)F)C3)cc2C)CO1 [Compound A160]
≥ 80%: percent effect (mortality or growth inhibition) at 200 ppm (Euschistus heros) | percent effect (mortality or growth inhibition) at 200 ppm (Diabrotica balteata) | percent effect (mortality, anti-feeding or growth inhibition) at 12.5 ppm (Spodoptera littoralis [1]; test rate 12.5 ppm, eggs, 6 days after infestation) | percent effect (mortality or growth inhibition) at 200 ppm (Plutella xylostella) | mortality at 200 ppm (Spodoptera littoralis [2]) | mortality at 200 ppm (Tetranychus urticae) | mortality at 200 ppm (Thrips tabaci)

Cc1cc(C2=NO[C@@](c3cc(Cl)c(F)c(Cl)c3)(C(F)(F)F)C2)ccc1C(=O)N[C@H]1CON(S(=O)(=O)C(F)F)C1 [Compound A226, 4-[(5S)-5-(3,5-dichloro-4-fluorophenyl)-5-(trifluoromethyl)-4H-1,2-oxazol-3-yl]-N-[(4R)-2-(difluoromethylsulfonyl)-1,2-oxazolidin-4-yl]-2-methylbenzamide]
≥ 80%: percent effect (mortality or growth inhibition) at 200 ppm (Euschistus heros) | percent effect (mortality or growth inhibition) at 200 ppm (Diabrotica balteata) | percent effect (mortality or growth inhibition) at 200 ppm (Plutella xylostella) | mortality at 200 ppm (Spodoptera littoralis [2]) | mortality at 200 ppm (Tetranychus urticae) | mortality at 200 ppm (Thrips tabaci) | mortality at 200 ppm (Myzus persicae)

Cc1cc(C2=NO[C@@](c3cc(Cl)c(F)c(Cl)c3)(C(F)(F)F)C2)ccc1C(=O)N[C@@H]1CON(S(=O)(=O)C2CC2)C1 [Compound A228, N-[(4S)-2-cyclopropylsulfonyl-1,2-oxazolidin-4-yl]-4-[(5S)-5-(3,5-dichloro-4-fluorophenyl)-5-(trifluoromethyl)-4H-1,2-oxazol-3-yl]-2-methylbenzamide]
≥ 80%: percent effect (mortality or growth inhibition) at 200 ppm (Euschistus heros) | percent effect (mortality or growth inhibition) at 200 ppm (Diabrotica balteata) | percent effect (mortality or growth inhibition) at 200 ppm (Plutella xylostella) | mortality at 200 ppm (Spodoptera littoralis [2]) | mortality at 200 ppm (Tetranychus urticae) | mortality at 200 ppm (Thrips tabaci) | mortality at 200 ppm (Myzus persicae)

Cc1cc(C2=NO[C@@](c3cc(Cl)c(Cl)c(Cl)c3)(C(F)(F)F)C2)ccc1C(=O)N[C@@H]1CON(S(=O)(=O)C2CC2)C1 [Compound A229, N-[(4S)-2-cyclopropylsulfonyl-1,2-oxazolidin-4-yl]-2-methyl-4-[(5S)-5-(3,4,5-trichlorophenyl)-5-(trifluoromethyl)-4H-1,2-oxazol-3-yl]benzamide]
≥ 80%: percent effect (mortality or growth inhibition) at 200 ppm (Euschistus heros) | percent effect (mortality or growth inhibition) at 200 ppm (Diabrotica balteata) | percent effect (mortality or growth inhibition) at 200 ppm (Plutella xylostella) | mortality at 200 ppm (Spodoptera littoralis [2]) | mortality at 200 ppm (Tetranychus urticae) | mortality at 200 ppm (Thrips tabaci) | mortality at 200 ppm (Myzus persicae)

Cc1cc(C2=NO[C@@](c3cc(Cl)cc(Cl)c3)(C(F)(F)F)C2)ccc1C(=O)N[C@@H]1CON(S(=O)(=O)C2CC2)C1 [Compound A230]
≥ 80%: percent effect (mortality or growth inhibition) at 200 ppm (Euschistus heros) | percent effect (mortality or growth inhibition) at 200 ppm (Diabrotica balteata) | percent effect (mortality or growth inhibition) at 200 ppm (Plutella xylostella) | mortality at 200 ppm (Spodoptera littoralis [2]) | mortality at 200 ppm (Tetranychus urticae) | mortality at 200 ppm (Thrips tabaci) | mortality at 200 ppm (Myzus persicae)

Cc1cc(C2=NO[C@@](c3cc(Cl)c(Cl)c(Cl)c3)(C(F)(F)F)C2)ccc1C(=O)N[C@H]1CON(S(=O)(=O)C(F)F)C1 [Compound A231, N-[(4R)-2-(difluoromethylsulfonyl)-1,2-oxazolidin-4-yl]-2-methyl-4-[(5S)-5-(3,4,5-trichlorophenyl)-5-(trifluoromethyl)-4H-1,2-oxazol-3-yl]benzamide]
≥ 80%: percent effect (mortality or growth inhibition) at 200 ppm (Euschistus heros) | percent effect (mortality or growth inhibition) at 200 ppm (Diabrotica balteata) | percent effect (mortality or growth inhibition) at 200 ppm (Plutella xylostella) | mortality at 200 ppm (Spodoptera littoralis [2]) | mortality at 200 ppm (Tetranychus urticae) | mortality at 200 ppm (Thrips tabaci) | mortality at 200 ppm (Myzus persicae)

Cc1cc(C2=NO[C@](c3cc(Cl)cc(Cl)c3)(C(F)(F)F)C2)ccc1C(=O)N[C@@H]1CON(S(=O)(=O)C(F)F)C1 [Compound A232, 4-[(5R)-5-(3,5-dichlorophenyl)-5-(trifluoromethyl)-4H-1,2-oxazol-3-yl]-N-[(4S)-2-(difluoromethylsulfonyl)-1,2-oxazolidin-4-yl]-2-methylbenzamide]
≥ 80%: percent effect (mortality or growth inhibition) at 200 ppm (Euschistus heros) | percent effect (mortality or growth inhibition) at 200 ppm (Diabrotica balteata) | percent effect (mortality or growth inhibition) at 200 ppm (Plutella xylostella) | mortality at 200 ppm (Spodoptera littoralis [2]) | mortality at 200 ppm (Tetranychus urticae) | mortality at 200 ppm (Thrips tabaci) | mortality at 200 ppm (Myzus persicae)

Cc1cc(C2=NO[C@@](c3cc(Cl)cc(C(F)(F)F)c3)(C(F)(F)F)C2)ccc1C(=O)N[C@@H]1CON(S(=O)(=O)C(F)F)C1 [Compound A233]
≥ 80%: percent effect (mortality or growth inhibition) at 200 ppm (Euschistus heros) | percent effect (mortality or growth inhibition) at 200 ppm (Diabrotica balteata) | percent effect (mortality or growth inhibition) at 200 ppm (Plutella xylostella) | mortality at 200 ppm (Spodoptera littoralis [2]) | mortality at 200 ppm (Tetranychus urticae) | mortality at 200 ppm (Thrips tabaci) | mortality at 200 ppm (Myzus persicae)

Cc1cc(C2=NOC(c3cc(Cl)cc(Cl)c3)(C(F)(F)F)C2)ncc1C(=O)NC1CON(S(C)(=O)=O)C1 (centres unmarked) [Compound A236]
≥ 80%: percent effect (mortality or growth inhibition) at 200 ppm (Euschistus heros) | percent effect (mortality or growth inhibition) at 200 ppm (Diabrotica balteata) | percent control (mortality, anti-feedant effect or growth inhibition) at 12.5 ppm (Spodoptera littoralis [1]) | percent effect (mortality or growth inhibition) at 200 ppm (Plutella xylostella) | mortality at 200 ppm (Spodoptera littoralis [2]) | mortality at 200 ppm (Tetranychus urticae) | mortality at 200 ppm (Thrips tabaci)
